Assay results reported in patent US20230255988A1 (CORNELL UNIVERSITY, priority 2020, published 2023).

Columns and labels:
Assay type in all cases: in vivo, human
[1] = system: amyloid positive patients with amnestic mild cognitive impairment (aMCI) or mild dementia due to AD; assay: Safety profile / adverse events in 12-month trial
Source text: (§1) The trial duration per participant was twelve months.
Pre-screening of 634 patients at the METS at the Burke Rehabilitation Hospital excluded all but 120 participants (FIG. 1). Only eighty-three of these patients were amyloid positive. Twelve declined to participate. Seventy-one of these participants agreed to be part of the trial, and were randomized to receive either placebo or benfotiamine. Eight subjects were prematurely discontinued from the trial prior to Month 12. Three participants were withdrawn due to non-compliance <80%; three withdrew consent due to unwillingness to complete study procedures; one participant was lost to follow-up and one was withdrawn by PI due to physical limitations. None of the participants randomized to the treatment group withdrew due to adverse reactions or adverse effects. […] After the trial completion and after the data were locked, one patient in the placebo group was determined to be on benfotiamine from another source and was excluded from the per-protocol analysis.

[2] = system: amyloid positive patients with amnestic mild cognitive impairment (aMCI) or mild dementia due to AD; assay: AD Assessment Scale-Cognitive Subscale (ADAS-Cog), 12-month randomized placebo-controlled trial
Source text: ADAS-cog served as the primary endpoint. […] Assignment of patients. […] Using blocked, stratified randomization design, patients were assigned to the treatment or control group. […] Within this group, a separate randomization schedule was generated using the proc plan function in SAS statistics program for those with an MMSE greater than or less than or equal to 26 to balance their allocation patients to placebo or treatment groups. Using a block size of four for a total of seventy-six patients, 19 blocks were created to help ensure balanced recruitment into treatment and control groups within strata. The schedule was generated in advance by the statistician and provided to the blinded pharmacist in charge of executing the randomization. Two randomization worksheets stratified by MMSE were provided to the pharmacist, who randomized the patients. […] The patients were enrolled by the clinical study team and randomized by the pharmacist. The assignment to the treatment or placebo group was known only to the pharmacist and kept behind a triple lock. The patients received numbered bottles. The trial duration per participant was twelve months. […] AD Assessment Scale-Cognitive Subscale (ADAS-Cog) was the primary outcome measure. It indicates the severity of the most important symptoms of Alzheimer's disease. It consists of 11 tasks measuring the disturbances of memory, language, praxis, attention and other cognitive abilities (S. Balsis et al., Alzheimer's & Dementia, 8, 288-294, 2012; […] al., International Psychogeriatrics, 9, 123-138, 1997). The primary clinical outcome was ADAS-Cog, and secondary outcomes included the CDR score and fluorodeoxyglucose ([…]) imaging of the brain. AGE levels were an exploratory outcome. The primary analysis followed Intention-to-Treat (ITT) and the secondary analysis was per-protocol. The per-protocol analysis omitted one placebo participant who took benfotiamine from a commercial vendor. The ITT and per-protocol analysis are presented for the primary outcome ADAS-cog and the secondary measure CDR. For the other measures, only per-protocol analysis are presented. The primary analysis was done on the ITT data. The Last-Observation-Carry-Forward (LOCF) method was used to impute the missing values of ADAS total score and the secondary endpoints such as CDR as well for each time point. The primary analysis was done on ITT data which were imputed with LOCF method. Per-protocol analysis was done as a sensitivity analysis and as observational comparisons (F. J. Molnar et al., Canadian Medical Association Journal, 179, 751, 2008).

[3] = system: amyloid positive patients with amnestic mild cognitive impairment (aMCI) or mild dementia due to AD; assay: Alzheimer's Disease Cooperative Study-Activities of Daily Living (ADCS-ADL), 12-month trial; details: 12 months
Source text: as §1
Alzheimer's Disease Cooperative Study-Activities of Daily Living (ADCS-ADL). The ADCS-ADLSIV is a caregiver-based ADL scale composed of 19 items developed for use in dementia clinical studies (D. Galasko et al., Alzheimer Disease and Associated Disorders, 11, S33-S39, 1997). It assesses the patient's performance of both basic and instrumental activities of daily living, such as those necessary for personal care, communicating and interacting with other people, maintaining a household, conducting hobbies and interests, as well as making judgments and decisions. Higher numbered scores and answers of “yes” reflect a more self-sufficient individual. Therefore, the higher total score correlates with higher cognitive function. The total score is the sum of all items and sub-questions.

[4] = system: amyloid positive patients with amnestic mild cognitive impairment (aMCI) or mild dementia due to AD; assay: Buschke Selective Reminding Test (SRT), 12-month trial; details: 12 months
Source text: The trial duration per participant was twelve months. […] The Buschke Selective Reminding Test (SRT) is a standard diagnostic tool in the assessment of verbal memory. Several studies attest to its predictive value for dementia.

## C/C(=C(\CCOP(=O)(O)O)SC(=O)c1ccccc1)N(C=O)Cc1cnc(C)nc1N [benfotiamine]
[1]; 2×300 mg benfotiamine per day, twelve months
  adverse events related to benfotiamine: No adverse events
[1]; overall conclusion
  safety of administration in patients with aMCI and dementia due to AD: safe
[1]; participants randomized to the treatment group
  withdrawal due to adverse reactions or adverse effects: None
[1]; treatment n = 34, 12 months
  Allergy, number of patients (%): 0 (0%)
  Anxiety, number of patients (%): 5 (14%)
  Bruise, number of patients (%): 2 (6%)
  Cold symptoms, number of patients (%): 3 (8%)
  Depression, number of patients (%): 1 (3%)
  Dizziness, number of patients (%): 3 (8%)
  Fall, number of patients (%): 6 (17%)
  Gastrointestinal problem, number of patients (%): 9 (26%)
  Head injury, number of patients (%): 0 (0%)
  Heart arrhythmia, number of patients (%): 1 (3%)
  Pain, number of patients (%): 5 (14%)
  Pneumonia, number of patients (%): 0 (0%)
  Sprain, number of patients (%): 0 (0%)
  Stroke, number of patients (%): 2 (6%)
  Surgery, number of patients (%): 1 (3%)
[1]; treatment n = 34, 12 months, placebo 59
  Total adverse events: 38
[2]; ITT analysis, 2×300 mg per day, 12 months, placebo 3.26
  ADAS-cog change from baseline at 12 months: 1.39
[2]; ITT, mixed effect model p=0.071, GEE p=0.137, Wilcoxon p=0.098
  ADAS-cog unadjusted change baseline to 12 months, difference versus placebo: favoring benfotiamine
[2]; Per-protocol, unadjusted, 2×300 mg per day, placebo 3.2 (5.66)
  ADAS score change Mean (SD), baseline to month 12: 0.96 (5.41)
[2]; exploratory
  ADAS-cog effect modification by APOE ε4 allele carrier status: no effect modification
[2]; exploratory, not statistically significant
  ADAS-cog effect modification by sex: males might have been more responsive
[2]; post-hoc, MMSE>=26 p=0.027, MMSE<26 p=0.99
  ADAS-cog response by baseline MMSE: stronger response among those with a higher MMSE at baseline
[3]
  ADCS-ADL score versus placebo: no significant differences
[4]; p=0.177, change 0.315
  Buschke SRT score and change in score versus placebo: no significant change
[4]; placebo showed a downward trend
  Buschke SRT score course over time: stable scores
